Source: patent US4474775A, “Pyrazol-4-yl phosphates and insecticidal and acaricidal use” (priority 1979, dated 1984)

Assays:
[1] = Oral acute toxicity in mice (Toxicological Test); settings: mouse, in vivo, five-week aged ddY-SLC strained male mice
From the text: Below tabulated are the oral acute toxicity values obtained with five-week aged, ddY-SLC strained male mice: […]

[2] = test system: Tetranychus urticae; assay: Effectiveness against Tetranychus urticae (Testing Example 4); format: in vivo; settings: decrease rate grade, 500 ppm spray on kidney bean plant; for Efficacy grading, 2nd day: 2nd day after spraying; for Efficacy grading, 7th day: 7th day after spraying
Procedure: Testing Example 4: Effectiveness against Tetranychus urticae
A test compound was processed into an emulsifiable concentrate in accordance with the formulation of Example 6, and diluted with water (with Dyne®, spreading agent, as diluted 3000-fold) to prepare a 500 ppm aqueous solution. Ten female adults of Tetranychus urticae) were infected on the seedling of a kidney bean plant water-cultured in a polyethylene cup, and the cups were placed in a glass chamber (28° C.) for 24 hours, followed by spraying 20 ml of the aqueous solution on the kidney bean plant. After the sprayed cup was placed again in the glass chamber, the number of the adults and larvae living on the leaves was counted on the 2nd and 7th days after spraying. The test was repeated twice, and the test results are tabulated in Table 5 in terms of the efficacy grading as determined by calculating a decrease rate by the following equation:
Decrease rate (%)=[(number of mites tested-number of larvae living on the day of inspection)/(number of mites tested)]×100

[3] = test system: Spodoptera litura; assay: Effectiveness against Spodoptera litura (Testing Example 2); format: in vivo; settings: second-instar larvae, 500 ppm spray on soybean, 28° C., 24 hours
Procedure: Testing Example 2: Effectiveness against Spodoptera litura
Twenty milliliters of a 500 ppm, water-diluted solution (with Dyne® Takeda Chem. Ind. Ltd., spreading agent, as diluted 3000-fold) of the test compound (the emulsifiable concentrate of Example 6) was sprayed on grown seedlings (10 days after germination) of soybean plant water-cultured in a polyethylene cup by the use of a spray gun (nozzle pressure of 1 kg/cm^2 gauge) in a spraying chamber. 2 hours after spraying, two main leaves of soybean plant were cut off and were placed into two cups (6 cm in diameter and 4 cm in depth), respectively, and ten second-instar larvae of Spodoptera litura were liberated. The cups were left in the room (28° C.) for 24 hours, and the dead larvae were counted.

CCCSP(=O)(OCC)Oc1cnn(-c2ccc3c(c2)OCO3)c1 (stereo not drawn) [compound 41]
LD50 [1]: 50 to 300 mg/kg | Efficacy grading, 2nd day [2]: 3 (Not less than 90) | Efficacy grading, 7th day [2]: 3 (Not less than 90) | mortality at 500 ppm [3]: 100%

CCOP(=S)(OCC)Oc1cnn(-c2ccccc2Cl)c1 [compound 11]
LD50 [1]: > 300 mg/kg | Efficacy grading, 2nd day [2]: 3 (Not less than 90) | Efficacy grading, 7th day [2]: 0 (Not more than 20)

CCCSP(=O)(OCC)Oc1cnn(-c2ccc(Cl)cc2C)c1 (stereo not drawn) [compound 38]
LD50 [1]: > 300 mg/kg | Efficacy grading, 2nd day [2]: 3 (Not less than 90) | Efficacy grading, 7th day [2]: 3 (Not less than 90) | mortality at 500 ppm [3]: 100%

CCCSP(=O)(OCC)Oc1cnn(-c2ccc(SC)cc2)c1 (stereo not drawn) [compound 26]
LD50 [1]: > 300 mg/kg | mortality at 500 ppm [3]: 100%

CCCSP(=S)(OCC)Oc1cnn(-c2ccc(F)cc2)c1 (stereo not drawn) [compound 19]
LD50 [1]: > 300 mg/kg | Efficacy grading, 2nd day [2]: 3 (Not less than 90) | Efficacy grading, 7th day [2]: 3 (Not less than 90) | mortality at 500 ppm [3]: 100%

CCCSP(=S)(OCC)Oc1cnn(-c2ccccc2)c1 (stereo not drawn) [Compound No. 5, O-ethyl-O-(1-phenylpyrazol-4-yl)-S-n-propyl phosphorothiolothionate]
LD50 [1]: > 300 mg/kg | Efficacy grading, 2nd day [2]: 3 (Not less than 90) | Efficacy grading, 7th day [2]: 3 (Not less than 90) | mortality at 500 ppm [3]: 100%

CCCSP(=O)(OCC)Oc1cnn(-c2ccc(C)cc2)c1 (stereo not drawn) [compound 23]
LD50 [1]: 50 to 300 mg/kg | Efficacy grading, 2nd day [2]: 3 (Not less than 90) | Efficacy grading, 7th day [2]: 3 (Not less than 90) | mortality at 500 ppm [3]: 100%

CCCSP(=S)(OCC)Oc1cn(-c2ccccc2)nc1C(=O)OCC (stereo not drawn) [compound 8]
LD50 [1]: > 300 mg/kg | Efficacy grading, 2nd day [2]: 3 (Not less than 90) | Efficacy grading, 7th day [2]: 0 (Not more than 20) | mortality at 500 ppm [3]: 100%

CCOP(=S)(OCC)Oc1cnn(-c2ccccc2C)c1 [compound 21]
LD50 [1]: > 300 mg/kg | Efficacy grading, 2nd day [2]: 3 (Not less than 90) | Efficacy grading, 7th day [2]: 0 (Not more than 20)

CCCSP(=S)(OCC)Oc1cnn(-c2ccc(Br)cc2)c1 (stereo not drawn) [compound 10]
LD50 [1]: > 300 mg/kg | Efficacy grading, 2nd day [2]: 3 (Not less than 90) | Efficacy grading, 7th day [2]: 3 (Not less than 90) | mortality at 500 ppm [3]: 100%

CCCSP(=O)(OCC)Oc1cn(-c2ccccc2)nc1C(=O)OCC (stereo not drawn) [compound 7]
LD50 [1]: > 300 mg/kg | Efficacy grading, 2nd day [2]: 3 (Not less than 90) | Efficacy grading, 7th day [2]: 3 (Not less than 90) | mortality at 500 ppm [3]: 100%

CCCSP(=S)(OCC)Oc1cnn(-c2cccc(Cl)c2)c1 (stereo not drawn) [compound 14]
LD50 [1]: > 300 mg/kg | Efficacy grading, 2nd day [2]: 3 (Not less than 90) | Efficacy grading, 7th day [2]: 0 (Not more than 20) | mortality at 500 ppm [3]: 100%

CCCSP(=S)(OCC)Oc1cnn(-c2cc([N+](=O)[O-])ccc2C)c1 (stereo not drawn) [compound 40]
LD50 [1]: > 300 mg/kg | mortality at 500 ppm [3]: 100%

CCCSP(=S)(OCC)Oc1cnn(-c2ccc(Cl)c(Cl)c2)c1 (stereo not drawn) [compound 32]
LD50 [1]: > 300 mg/kg | Efficacy grading, 2nd day [2]: 3 (Not less than 90) | Efficacy grading, 7th day [2]: 3 (Not less than 90) | mortality at 500 ppm [3]: 100%

CCOP(=S)(OCC)Oc1cnn(-c2ccc(Cl)cc2)c1 [compound 15]
LD50 [1]: > 300 mg/kg | Efficacy grading, 2nd day [2]: 3 (Not less than 90) | Efficacy grading, 7th day [2]: 0 (Not more than 20)

CCCSP(=O)(OCC)Oc1cnn(-c2c(C)cccc2C)c1 (stereo not drawn) [compound 36]
LD50 [1]: > 300 mg/kg | Efficacy grading, 2nd day [2]: 3 (Not less than 90) | Efficacy grading, 7th day [2]: 3 (Not less than 90) | mortality at 500 ppm [3]: 100%

CCCSP(=S)(OCC)Oc1cnn(-c2cccc(C(F)(F)F)c2)c1 (stereo not drawn) [compound 28]
LD50 [1]: > 300 mg/kg | mortality at 500 ppm [3]: 100%

CCCSP(=O)(OCC)Oc1cnn(-c2cccc(C(F)(F)F)c2)c1 (stereo not drawn) [compound 27]
LD50 [1]: 50 to 300 mg/kg | mortality at 500 ppm [3]: 100%

CCCSP(=O)(OCC)Oc1cnn(-c2cc([N+](=O)[O-])ccc2C)c1 (stereo not drawn) [compound 39]
LD50 [1]: > 300 mg/kg | mortality at 500 ppm [3]: 100%
